Measured values published in US20170002360A1, “PROTEIN PHOSPHATASE INHIBITOR” (priority 2013, published 2017).

Tests used:
[1] = tested on: DU145 prostate cancer wild type cell line; experiment: CPT titration, loss of viability, wild-type prostate cancer cells; type: cell-based; details: varying concentrations of CPT; 48 hrs post CPT treatment
Experimental: FIG. 6A: Camptothecin (CPT) treatment of DU145 prostate cancer wild-type cell line. CPT was titrated on DU145 wild-type cells and 48 hrs post CPT treatment, the cells were examined for the loss of viability compared to control (untreated)
(§1) In addition to the described experiments, the effect of inhibiting the phosphatase PPEF1 on characterized published drug resistant cell lines was assessed. The resistant cell lines used in these experiments were DU145/RCO.1 cells, which were kindly provided by Prof. Dr. Yves Pommier from the Laboratory of Molecular Pharmacology, Center of Cancer research, National Cancer institute, Bethesda, USA. These DU145/RCO.1 cells and their resistance to CPT) have been described Urasaki et al. (Cancer Research 61, 2001, pp. 1964-1969). Initially, DU145 prostate cancer wild type cell line was treated with varying concentrations of camptothecin (CPT).

DU145/RCO.1 cells = experiment: CPT titration, loss of viability, CPT resistant cells with or without PPEF1 SiRNA; type: cell-based; details: 48 hrs post CPT treatment
Source text: (§2) FIG. 6B: Camptothecin treatment of CPT approved resistant cells. CPT was titrated on DU145/RCO.1 cells reported to be resistant to CPT. 48 hrs post CPT treatment, the cells were examined for the loss of viability compared to control (untreated)
as §2, with “6C:” for “6B:”, “cells after PPEF1 inhibition. 24 hrs post PPEF1 SiRNA treatment,” for “cells.”
as §1
The results of these experiments can be seen in FIG. 6c.

Molecule	viability [1]	viability (DU145/RCO.1 cells; varying concentrations of CPT alone)	sensitivity to CPT / viability (DU145/RCO.1 cells; CPT titrated 24 hrs post PPEF1 SiRNA treatment)
CC[C@@]1(O)C(=O)OCc2c1cc1n(c2=O)Cc2cc3ccccc3nc2-1 [CPT, camptothecin]	greatly reduced	did not significantly change	–
Example 2: SiRNA oligonucleotide targeting PPEF1, CAGTTCGAATCTGGTAAACAT, obtained from Qiagen (chemistry not given here)	–	–	became sensitive and lost viability
